Values after ≈ are worked out from the molar mass of the structure shown.
How the values were obtained:
Cytochrome P450 3A4 = Cytochrome P450 3A4 (Homo sapiens, UniProt P08684); assay: Time-dependent inhibition of CYP3A4 in human liver microsomes using testosterone as substrate and in presence of co-factor by LC-MS/MS analysis
[1] = Inhibition of embelin-induced migration of human neutrophils preincubated for 30 mins followed by embelin addition and measured after 1 hr by ATPlite luminescence assay; settings: Neutrophil
[2] = Thermodynamic solubility of compound at pH 7.4; settings: buffer
[3] = Plasma protein binding in mouse at 5 uM measured after 4 hrs by LC-MS/MS analysis
[4] = Plasma protein binding in human at 5 uM measured after 4 hrs by LC-MS/MS analysis
Neutrophil = assay: Inhibition of dog neutrophil cell migration; settings: Canis lupus familiaris
[5] = Initial plasma concentration in CD1 mouse at 1 mg/kg, iv administered as single bolus dose using PEG-200/saline formulation measured after 24 hrs by LC-MS/MS analysis
[6] = Half-life in CD1 mouse at 1 mg/kg, iv administered as single bolus dose using PEG-200/saline formulation measured after 24 hrs by LC-MS/MS analysis; settings: in vivo
[7] = Volume of distribution at steady state in Beagle dog at 0.5 mg/kg, iv administered as 10 mins infusion via catheter by LC-MS/MS analysis; settings: in vivo
[8] = Half life in Beagle dog at 0.5 mg/kg, iv administered as 10 mins infusion via catheter by LC-MS/MS analysis; settings: in vivo
[9] = Half-life in plasma of Balb/c mouse model of DSS-induced colitis at 3 mg/kg, po administered using PEG-200/water formulation starting from day 1 to 11 measured by LC-MS analysis
[10] = Half-life in plasma of Balb/c mouse model of DSS-induced colitis at 10 mg/kg, po administered using PEG-200/water formulation starting from day 1 to 11 measured by LC-MS analysis
in vivo [11] = settings: CD1, mouse, po, 5 mg/kg
in vivo [12] = settings: male, Sprague-Dawley, rat, po
in vivo [13] = settings: male, Sprague-Dawley, rat, po; remark: listed apart in the source
in vivo [14] = settings: Beagle, dog, iv, 0.5 mg/kg
in vivo [15] = settings: Beagle, dog, po
in vivo [16] = settings: Beagle, dog, po; remark: listed apart in the source
in vivo [17] = settings: Beagle, dog, po; remark: listed apart in the source
Description: Half life in Beagle dog at 2.5 mg/kg, po administered as single dose via gavage by LC-MS/MS analysis

in vivo [18] = settings: Beagle, dog, po; remark: listed apart in the source
in vivo [19] = settings: Balb/c, mouse, plasma, po, 3 mg/kg
in vivo [20] = settings: Balb/c, mouse, plasma, po, 3 mg/kg; remark: listed apart in the source
in vivo [21] = settings: Balb/cj, mouse, plasma, po, 10 mg/kg
in vivo [22] = settings: Balb/c, mouse, plasma, po, 10 mg/kg
in vivo [23] = settings: Balb/c, mouse, plasma, po, 10 mg/kg; remark: listed apart in the source
in vitro [24] = settings: mouse, liver microsomes
in vitro [25] = settings: human, cryopreserved hepatocytes
in vitro [26] = settings: rat, cryopreserved hepatocytes
in vitro [27] = settings: rat, cryopreserved hepatocytes; remark: listed apart in the source

Chain of Cytochrome P450 3A4 (P08684 whole entry): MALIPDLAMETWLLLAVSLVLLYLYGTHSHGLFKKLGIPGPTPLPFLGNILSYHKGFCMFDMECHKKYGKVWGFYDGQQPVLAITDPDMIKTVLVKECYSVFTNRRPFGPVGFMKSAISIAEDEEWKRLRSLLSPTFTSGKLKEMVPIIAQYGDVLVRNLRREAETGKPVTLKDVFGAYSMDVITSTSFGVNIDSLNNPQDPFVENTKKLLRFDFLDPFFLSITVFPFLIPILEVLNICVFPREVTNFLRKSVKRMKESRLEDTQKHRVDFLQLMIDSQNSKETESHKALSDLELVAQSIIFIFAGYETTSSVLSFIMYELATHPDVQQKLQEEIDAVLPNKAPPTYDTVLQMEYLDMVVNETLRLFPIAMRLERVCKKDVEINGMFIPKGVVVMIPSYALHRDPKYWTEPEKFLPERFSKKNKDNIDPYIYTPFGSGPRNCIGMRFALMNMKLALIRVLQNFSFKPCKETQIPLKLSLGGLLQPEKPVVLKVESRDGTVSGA

- IC50 (Cytochrome P450 3A4): > 50000 nM
- IC50 [1]: 11 nM
- solubility thermodynamic [2]: 7.75 µg/mL (≈ 20.5 µM)
- fraction unbound at 4 h, 5 µM [3]: 0.022
- fraction unbound at 4 h, 5 µM [4]: 0.028
- IC50 (Neutrophil): 75 nM
- C0 at 24 h [5]: 1230 ng/mL
- half-life at 24 h [6]: 0.6 h
- Vd at […] [7]: 2 L/kg
- half-life at […] [8]: 1.4 h
- half-life [9]: 2.9 h
- half-life [10]: 2.3 h
- Cmax at 24 h (in vivo [11]): 4590 ng/mL
- Tmax at 24 h (in vivo [12]): 1.5 h
- bioavailability at 24 h (in vivo [13]): > 100%
- AUC(0-t) at […] (in vivo [14]): 410 ng·h/mL
- Cmax (in vivo [15]): 558 ng/mL
- AUC(0-t) at 24 h (in vivo [16]): 2230 ng·h/mL
- half-life (in vivo [17]): 2 h
- bioavailability (in vivo [18]): > 100%
- Cmax (in vivo [19]): 1840 ng/mL
- AUC(0-t) at 24 h (in vivo [20]): 5560 ng·h/mL
- Cmax (in vivo [21]): 8140 ng/mL
- Tmax (in vivo [22]): 1 h
- AUC(0-t) at 24 h (in vivo [23]): 50400 ng·h/mL
- CLint scaled at 0.5 h, 1 µM (in vitro [24]): 133 mL/min/kg
- CLint scaled at 1 µM (in vitro [25]): < 21.3 mL/min/kg
- half-life at 1 µM (in vitro [26]): > 3.33 h
- CLint scaled at 1 µM (in vitro [27]): < 33.3 mL/min/kg
SMILES: O=c1nc(OC[C@@H]2COCCO2)cc2n1CCc1cc(C#CC3CC3)ccc1-2 [GLPG-1205]

Source: ChEMBL document CHEMBL4673243, “Discovery of 9-Cyclopropylethynyl-2-((S)-1-[1,4]dioxan-2-ylmethoxy)-6,7-dihydropyrimido[6,1-a]isoquinolin-4-one (GLPG1205), a Unique GPR84 Negative Allosteric Modulator Undergoing Evaluation in a Phase II Clinical Trial” (J Med Chem, 2020)
